Paper PMC11931565, “Exploring medium and long arm extensions of 1,2,4-triazole derivatives as Candida albicans 14α-demethylase (CYP51) inhibitors” (RSC Medicinal Chemistry, 2025)
Converted amounts (≈) assume the structure as drawn. Where two headings read alike, the source gives them in different places.

What was measured:
[1] = tested on: S. cerevisiae Y525 overexpressing C. albicans MFS transporter MDR1a; test: MIC, recombinant S. cerevisiae strain Y525 CaMDR1a; type: cell-based; conditions: SD medium pH 6.8, 30 °C; 80% inhibition of growth
Experimental: (§1) Minimum inhibitory concentration (MIC) were determined according to recommendations outlined in the Clinical and Laboratory Standards Institute (CLSI) document M27-Ed4E[39] with modifications. Sabouraud dextrose (SD) medium (pH 6.8) was used instead of RPMI-1640 for inoculum and growth of the S. cerevisiae strains and cultures were incubated at 30 °C. […] Stock solutions of each agent were prepared in DMSO and the final concentration of DMSO was 1% (v/v) in SD. […] The final concentration of all other compounds ranged from 0.03–16 μg mL^−1. Three biological repeats were performed.

native CaCYP51 = target: T1, native CaCYP51 (Candida albicans, UniProt P10613); test: CaCYP51 type II ligand binding affinity (Kd) from difference spectra saturation curves
T1 construct: made in house; host or cells: E. coli
Experimental: Azole titration was performed in triplicate.
The ligand–CaCYP51 complex was determined by non-linear regression (Levenberg–Marquardt algorithm) using a rearrangement of the Morrison equation for tight ligand binding,[38] while weak ligand binding was calculated by the Michaelis–Menten equation. Curve fitting for novel azole saturation curves was performed using the computer program ProFit 6.1.12 (QuantumSoft, Zurich, Switzerland) for Mac OSX. Kd values were determined for each of the three replicate titrations per azole compound and then mean Kd values and standard deviations calculated.

[2] = tested on: S. cerevisiae Y2513 overexpressed ScCYP51 Y140H; test: MIC, recombinant S. cerevisiae strain Y2513 Y140H; type: cell-based; conditions: Saccharomyces cerevisiae, pH 6.8, read-out: MIC Y2513 Y140H
Experimental: (§2) The most promising thiazole derivative 7b, and the extended amide derivatives 13a and 13b were evaluated against a panel of recombinant S. cerevisiae strains[24,31,32] expressing control levels of wild-type CYP51 (ScCYP51), overexpressed wild-type ScCYP51, overexpressed azole-resistant ScCYP51 Y140F/H mutations (S. cerevisiae Y140 equivalent to C. albicans Y132), overexpressed C. albicans efflux pumps MDR1a or CDR1B and overexpressed H. sapiens wild-type CYP51 (HsCYP51) (Table 3) at 24 and 48 h with each assay performed in triplicate.
as §1

[3] = tested on: S. cerevisiae Y2300 overexpressed wild-type ScCYP51; test: MIC, recombinant S. cerevisiae strain Y2300 ScCYP51; type: cell-based; conditions: Saccharomyces cerevisiae; SD medium pH 6.8, 30 °C; 80% inhibition of growth; read-out: MIC Y2300 ScCYP51
Experimental: as §2, §1

[4] = tested on: C. albicans wild-type clinical isolate CA14; test: C. albicans susceptibility testing (CLSI broth microdilution MIC), strain CA14; type: cell-based, Candida albicans; conditions: RPMI 1640, 37 °C, read at 48 h; for MIC: Candida albicans
From the text: (§3) Each novel compound was screened against C. albicans wild-type clinical isolate CA14 and C. albicans laboratory strain SC5314 using the standardised CLSI M27-S4 broth dilution method.[28] […] This might be explained by the clog P data as the more lipophilic compounds should more readily penetrate the fungal membrane resulting in improved uptake or may relate to optimal fill of the small hydrophobic pocket leading to improved binding.
(§4) Antifungal MIC values were obtained according to the CLSI microdilution method for yeasts.[28]C. albicans strains CA14 and SC5314 were tested in triplicate. Cultures were diluted to 2.5 × 10^3 cells per mL in RPMI 1640 (Sigma), buffered with 0.165 M MOPS, pH 7.0. Antifungal compounds were dissolved in DMSO and added at a final concentration of 1% v/v DMSO. Plates were incubated at 37 °C and read at 48 h.

[5] = tested on: S. cerevisiae Y2411 parent (control levels of wild-type ScCYP51); test: MIC, recombinant S. cerevisiae strain Y2411 parent; type: cell-based; conditions: Saccharomyces cerevisiae; SD medium pH 6.8, 30 °C; 80% inhibition of growth; read-out: MIC Y2411 parent
Experimental: as §2, §1

[6] = tested on: S. cerevisiae Y2760 overexpressed H. sapiens wild-type CYP51 (HsCYP51); test: MIC, recombinant S. cerevisiae strain Y2760 HsCYP51; type: cell-based; conditions: Saccharomyces cerevisiae; SD medium pH 6.8, 30 °C; 80% inhibition of growth; read-out: MIC Y2760 HsCYP51
Experimental: as §2
The HsCYP51 ORF (NP_000777.1) was codon harmonized (ch) using DNA 2.0 for expression in S. cerevisiae and synthesized by ATUM (Newark, Ca, USA). The 3′ end of the ORF was extended to encode EQKI of the ScErg11 C-terminus, followed by a GGR linker and a 6xHis tag. Strain Y2514 was prepared by transforming host strain Y1857 with a transformation cassette including the above construct together with the ScPGK transcription terminator and URA3 selection marker located downstream, bordered by upstream and downstream parts of ScPDR5 gene identical to sequences in ScErg11 over-expressing strain Y941. Strain Y2514 constitutively overexpressed HsCYP51ch-6xHis and URA3 from the ScPDR5 locus.
Strain Y2757 (Y2514, PDR15::HsCPRch-6xHis-LoxP-HIS1-LoxP) was prepared by co-expressing the cognate reductase HsCRP in strain Y2514. Codon harmonisation and synthesis of human NADPH-cytochrome P450 reductase isoform 2 (HsCPRch, NP_001369584.1) ORF was performed by ATUM. The gene was 3′ extended with a sequence encoding GGR-6xHIS. A transformation cassette was prepared by recombinant PCR to include the HsCPRch ORF with 657 nucleotides the ScPDR5 promoter upstream, and the ScPGK terminator followed by the LoxP flanked ScHIS1 selection marker downstream. ScPDR15 specific arms bordering the construct enabled the cassette to be integrated between the nucleotide 441 of the 5′ UTR and nucleotide 1 of the 3′ UTR in PDR15.
Strain Y2758 (Y2757 ΔHIS1) was made using the following steps. Strain Y2757 was transformed with the pSH69 pGAL1-cre plasmid (Euroscarf, Germany) via selection on hygromycin (75 μg mL^−1) containing YPD plates. A single hygromycin positive colony was inoculated in 1% yeast extract, 2% peptone and 2% of galactose broth and incubated for 16 hours at 30 °C with shaking. The diluted culture was then plated on YPD agar and replica-plated on YPD + hygromycin and SD-HIS dropout agar plates. Deletion of the HIS selection marker downstream of HsCPRch-6xHis in the PDR15 locus was confirmed in double His and hygromycin negative isolates by PCR and DNA sequence analysis.
The endogenous ScERG11 ORF in strain Y2758 was removed by transforming with a LoxP- ScHIS1 containing cassette with arms complementing from +387 nucleotides in the 5′UTR and −60 nucleotides in the 3′UTR of the ScERG11 locus, resulting in strain Y2760 (ADΔΔ PDR5::HsCYP51ch-6×HIS-URA3; PDR15::HsCPRch6×HIS-LoxP, ΔERG11-LoxP-HIS1-LoxP).
as §1

[7] = tested on: C. albicans laboratory strain SC5314; test: C. albicans susceptibility testing (CLSI broth microdilution MIC), strain SC5314; type: cell-based, Candida albicans; conditions: RPMI 1640, 37 °C, read at 48 h; for MIC: Candida albicans, SC5314, 48 h
From the text: as §3, §4

[8] = tested on: S. cerevisiae Y2301 overexpressed ScCYP51 Y140F; test: MIC, recombinant S. cerevisiae strain Y2301 Y140F; type: cell-based; conditions: Saccharomyces cerevisiae, pH 6.8, read-out: MIC Y2301 Y140F
Experimental: as §2, §1

[9] = tested on: S. cerevisiae Y570 overexpressing C. albicans ABC transporter CDR1B; test: MIC, recombinant S. cerevisiae strain Y570 CaCDR1B; type: cell-based; conditions: SD medium pH 6.8, 30 °C; 80% inhibition of growth
Experimental: as §2, §1

[10] = target: T2, C. albicans CYP51 (CaCYP51) (Candida albicans, UniProt P10613); test: CaCYP51 reconstitution assay (IC50); type: biochemical; conditions: 1 μM CaCYP51, 60 μM lanosterol, 15 min at 37 °C
T2 construct: made in house; host or cells: E. coli
Experimental: Derivatives with a MIC <1 μg mL^−1 were chosen for IC50 testing.
C. albicans CYP51 was overexpressed in E. coli and purified and CaCYP51 reconstitutions assays performed.[10,37] The final reaction volume of 500 μL, contained; 1 μM C. albicans CYP51, 2 μM Homo sapiens cytochrome P450 reductase (CPR) (UniProtKB accession number P16435), 60 μM lanosterol, 50 μM dilaurylphosphatidylcholine, 4% w/v 2-hydroypropyl-cyclodextrin, 0.4 mg mL^−1 isocitrate dehydrogenase, 25 mM trisodium isocitrate, 50 mM NaCl, 5 mM MgCl2, and 40 mM MOPS (morpholinepropanesulfonic acid, pH 7.2). Antifungal compounds were added in 2.5 μL DMSO. The reaction was started by the addition of 4 mM NADPH-tetrasodium salt. Samples were shaken for 15 min at 37 °C and sterol metabolites extracted with ethyl acetate and derivatised with BSTFA.

[11] = 2.5 μM native CaCYP51, mean ± SD of three titrations, read-out: K d

T1 sequence (P10613 whole entry): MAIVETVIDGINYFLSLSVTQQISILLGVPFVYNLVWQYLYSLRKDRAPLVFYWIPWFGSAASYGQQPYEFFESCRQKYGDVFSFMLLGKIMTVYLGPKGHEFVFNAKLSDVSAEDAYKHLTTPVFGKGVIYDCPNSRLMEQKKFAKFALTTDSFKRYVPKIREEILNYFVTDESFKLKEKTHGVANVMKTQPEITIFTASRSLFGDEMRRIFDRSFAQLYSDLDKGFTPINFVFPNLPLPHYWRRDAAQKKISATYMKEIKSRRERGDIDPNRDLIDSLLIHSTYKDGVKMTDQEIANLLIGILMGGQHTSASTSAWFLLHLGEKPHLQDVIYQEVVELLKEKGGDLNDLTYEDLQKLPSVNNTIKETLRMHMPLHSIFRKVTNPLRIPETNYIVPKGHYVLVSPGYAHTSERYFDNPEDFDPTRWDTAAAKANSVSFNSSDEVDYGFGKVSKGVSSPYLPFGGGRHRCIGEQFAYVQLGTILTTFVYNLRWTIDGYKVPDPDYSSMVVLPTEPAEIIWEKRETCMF
T2 sequence (P10613 whole entry): as above

Compound	MIC [1]	Kd (native CaCYP51)	MIC [2]	MIC [3]	MIC [4]	MIC [5]	MIC [6]	MIC [7]	MIC [8]	MIC [9]	IC50 [10]	Kd (native CaCYP51; [11])	MIC CA14 [4]	MIC SC5314 [7]
OC(Cn1cncn1)(Cn1cncn1)c1ccc(F)cc1F [FLZ, Fluconazole, reference compound]	32 µg/mL	31 ± 8 nM	32 µg/mL	16 µg/mL	0.125 µg/mL (≈ 0.408 µM)	4 µg/mL	> 128 µg/mL	0.125 µg/mL (≈ 0.408 µM)	32 µg/mL	> 128 µg/mL	–	–	–	–
O=C(NCC(O)(Cn1cncn1)c1ccc(Cl)cc1Cl)c1ccc(NC(=O)c2ccc(Cl)cc2)cc1 (stereo not shown) [13b, 4-Chloro-N-(4-((2-(2,4-dichlorophenyl)-2-hydroxy-3-(1H-1,2,4-triazol-1-yl)propyl)carbamoyl)phenyl)benzamide]	0.03 to 0.06 µg/mL	–	0.125 µg/mL	0.25 µg/mL	< 0.03 µg/mL	0.03 to 0.06 µg/mL	4 to 8 µg/mL	< 0.03 µg/mL	0.25 µg/mL	> 16 µg/mL	480 nM	166 ± 39 nM	<0.03 µg/mL	<0.03 µg/mL
O=C(NCC(O)(Cn1cncn1)c1ccc(Cl)cc1)c1ccc(NC(=O)c2ccc(Cl)cc2)cc1 (stereo not shown) [13a, 4-Chloro-N-(4-((2-(4-chlorophenyl)-2-hydroxy-3-(1H-1,2,4-triazol-1-yl)propyl)carbamoyl)phenyl)benzamide]	0.125 µg/mL	–	1 µg/mL	1 to 2 µg/mL	< 0.03 µg/mL	0.25 µg/mL	> 16 µg/mL	< 0.03 µg/mL	1 to 2 µg/mL	> 16 µg/mL	560 nM	46 ± 8 nM	<0.03 µg/mL	<0.03 µg/mL
O=C(NCC(O)(Cn1cncn1)c1ccc(Cl)cc1Cl)c1csc(Cl)n1 (stereo not shown) [7b, 2-Chloro-N-(2-(2,4-dichlorophenyl)-2-hydroxy-3-(1H-1,2,4-triazol-1-yl)propyl)thiazole-4-carboxamide]	2 µg/mL	–	2 to 4 µg/mL	0.5 to 1 µg/mL	< 0.03 µg/mL	0.125 µg/mL	> 16 µg/mL	< 0.03 µg/mL	4 µg/mL	> 16 µg/mL	410 nM	106 ± 15 nM	<0.03 µg/mL	<0.03 µg/mL
